The text below walks through data of patent publication US20080269346A1, “B-Blocker Pharmacogenetics in Heart Failure” (University of Florida Research Foundation, Inc., priority 2005, published 2008).

For data set [1], the system named is patients with heart failure. The note with it: Metra et al. 2000; cited from earlier work.
Data set [2] relates to hypertensive men and women. The experiment in a line: Hypertension study: 24-hour ambulatory blood pressure response to metoprolol by ADRA2C Ins/Del genotype.
Experimental: In the hypertension study, 40 hypertensive men and women aged 35 to 65 years were studied. Hypertension was defined as untreated DBP between 95 mm Hg and 115 mm Hg (2 clinic visits, ≧5 minutes sitting). A certain range for systolic blood pressure (SBP) was not required for study entry. […] Medications for other indications were only allowed if it could not conceivably affect BP.
Patients took 50 mg metoprolol every 12 hours and BP was measured every week at the same time of the day to minimize the impact of diurnal BP variation. To achieve the goal DBP <90 mm Hg, the dose could be increased weekly to 100 mg and the maximum of 200 mg every 12 hours. Doses were not increased if the patient had intolerable side effects.
After the treatment phase, 24-hour ABP monitoring was repeated and blood samples for a pharmacokinetic analysis were taken.
Thus, univariate linear regression was used to model the DBP responses (24-hour, daytime) with the Ins/Del variable. […] This model would also include other, in the univariate model significant variables (P<0.1 for entry).
Data set [3] in a line: S-metoprolol plasma concentrations in heart failure patients on metoprolol CR/XL. The note with it: final metoprolol CR/XL dose, about 2 to 4 hours after dosing. It is filed as in vivo, human. How it is done:
After obtaining informed consent, a 5-mL blood sample for isolation of genomic DNA was collected. Baseline evaluations included a two-dimensional (2D) quantitative echocardiogram for determination of measures such as ejection fraction (EF}, left ventricular end-diastolic diameter (LVEDD), LV end-systolic diameter (LVESD), and completion of a 6-minute walk test. After completion of baseline studies, patients began metoprolol CR/XL. The starting dose of metoprolol CR/XL was 12.5 mg/day for patients in NYHA class III and 25 mg/day for patients in NYHA class II. The dose was doubled on a biweekly basis to 200 mg/day or maximum tolerated dose. Thus, the time for the up-titration period was 8-10 weeks depending on the starting dose of metoprolol CR/XL. Patients underwent a follow-up echocardiogram three months after the attainment of completion of up-titration or attainment of the maximum metoprolol CR/XL dose. Thus, at the time of the follow-up echocardiogram, patients had been receiving metoprolol CR/XL for approximately 5-5.5 months. In a subset of 42 patients who consented to additional blood draws, a pharmacokinetic blood sample was obtained approximately 2 to 4 hours following dosing after two weeks on each metoprolol CR/XL dose for determination of S-metoprolol (active isomer) concentrations.

Data set [4] has as its system heart failure patients. Particulars: concomitant drug in patients on metoprolol CR/XL; linear regression on final EF.
Text: Patients were recruited for this prospective study from the University of Florida and University of North Carolina Heart Failure Clinics. All clinicians involved in clinical decision making were blinded to the genotypic data and all investigators determining the genotypes were blinded to the patient's clinical course. The study was approved by the Institutional Review Board at each institution, and each patient gave written informed consent for participation in the study. The procedures followed were in accordance with institutional guidelines. The study population included patients aged ≧18 years with symptoms of heart failure in NYHA functional class II-III, and with an EF≦40%. […] Patients were not eligible for enrollment if they were receiving β-blocker therapy.
After obtaining informed consent, a 5-mL blood sample for isolation of genomic DNA was collected. […] Left ventricular dimensions at the mid-cavity or chordal level were measured from digitized end diastolic and end systolic parasternal long axis images of the left ventricle.
Patients were divided by genotype and compared for continuous parameters (e.g., LVEF, LVEDD) at baseline as well as changes in these parameters. Comparisons were made by unpaired t-test, ANOVA, Kruskal Wallis test, or Wilcoxon rank sum as appropriate. […]
Data set [5] has as its system heart failure patients. Briefly: Heart failure study: ejection fraction and heart rate response by ADRA2C Ins/Del and ADRB1 Arg389Gly genotype. It is filed as in vivo, human. The note with it: concomitant drug in patients on metoprolol CR/XL.
Experimental: Inclusion criteria were age >18 years, NYHA functional class II-III, EF <40% and angiotensin-converting enzyme (ACE) inhibitor or angiotensin receptor blocker treatment on a stable dose for a minimum of four weeks. Patients receiving β-blocker therapy were not eligible.
At baseline, ejection fraction (EF), LV end-diastolic diameter (LVEDD) and LV endsystolic diameter (LVESD) were determined by a two-dimensional (2D) quantitative echocardiogram. Echocardiograms were analyzed by a single experienced echo-cardiologist. This individual had no knowledge of the clinical course or the genotyping results. […] The starting dose for patients in NYHA class II was 25 mg/day. […] Based on α of 0.05 and 80% power, at least 20 patients per genotype group (Ins/Ins or Del Carrier) were required to detect a difference of 6 EF units. […] Therefore, univariate linear regression models were used to predict end of study EF, LVEDD, or LVESD with the Ins/Del variable. […] The multivariate linear regressions included also variables that were significant in the univariate models. Three different step-type selection methods (backward elimination, forward elimination, and minimum R^2 improvement) were used to determine the best-fitting regression model from the maximum model. Model entry was set at P<0.1 and variables with P<0.05 stayed for the next step. […]

Regarding `COCCc1ccc(OCC(O)CNC(C)C)cc1` (stereo not shown) [metoprolol], the “95% confidence intervals for the change in LVEF” value in data set [1] is −8.2 to +22.6. Further, in data set [2] (Del carrier), the “24-hour SBP change” value was −8.3±21.6, the “daytime SBP change” value is −9.4±21.7 and the “nighttime SBP change” value is listed as −4.7±22.2. The “Nighttime DBP change” value in data set [2] (Del carriers) turned out to be 3.7±9.7 mm Hg. In data set [2] (Ins/Ins), the “24-hour SBP change” value is −8.8±16.4 mm Hg, the “Nighttime DBP change” value was −8.0±8.8 mm Hg, the “daytime SBP change” value is listed as −9.5±16.6 mm Hg and the “nighttime SBP change” value is listed as −7.0±18.1 mm Hg. For the same compound, the adverse effects entry in data set [2] (all 40 hypertension patients) is reported as “minor”.
For `COCCc1ccc(OCC(O)CNC(C)C)cc1.COCCc1ccc(OCC(O)CNC(C)C)cc1.O=C(O)CCC(=O)O` (stereo not shown) [metoprolol CR/XL], the results for the “S-metoprolol plasma concentrations, median (interquartile range)” value in data set [3] (Arg389 homozygotes) and in data set [3] (Gly 389 carriers) were 31 ng/mL and 19 ng/mL, respectively.
On to `CC(=O)S[C@@H]1CC2=CC(=O)CC[C@]2(C)[C@H]2CC[C@@]3(C)[C@@H](CC[C@@]34CCC(=O)O4)[C@H]12` [Spironolactone, spironolactone], for which the “Parameter Estimate for use of the drug, multivariate analysis of change in Ejection Fraction” value in the data set with heart failure patients [4] was 6.19 ejection fraction units. In the data set on heart failure patients [5], the “Parameter estimate for use of the drug, multiple regression of treatment ejection fraction” value was 4.37.
For `NS(=O)(=O)c1cc(C(=O)O)c(NCc2ccco2)cc1Cl` [Furosemide, furosemide], in the data set on heart failure patients [4], the “Parameter Estimate for use of the drug, multivariate analysis of change in Ejection Fraction” value is recorded as 8.22 ejection fraction units.
`COc1ccccc1OCCNCC(O)COc1cccc2[nH]c3ccccc3c12` (stereo not shown) [carvedilol]: the “95% confidence intervals for the change in LVEF” value in data set [1] is recorded as −11.1 to +32.9.
